The test system of this test is P388 leukemia ip, CD2F1 mice, survival T/C. The test is described as follows: NCI In Vivo Anticancer Drug Screen. Data for tumor model P388 Leukemia (intraperitoneal) in CD2F1 (CDF1) mice. The settings on record: endpoint: median survival time, higher = longer survival. An outline of the steps: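 Mice carrying the transplanted tumor received test compound or vehicle. Survival was recorded in each group, and the value is the treated-group measurement divided by that of the vehicle-treated control group.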

Where [1] appears, read: dose: 50.0 mg/kg/injection, schedule: Q01DX005 (ip), vehicle: Klucel (hydroxypropylcellulose) (HPC).
Setting [2] is: dose: 100.0 mg/kg/injection, schedule: Q01DX005 (ip), vehicle: Klucel (hydroxypropylcellulose) (HPC).
Setting [3] is: dose: 200.0 mg/kg/injection, schedule: Q01DX005 (ip), vehicle: Klucel (hydroxypropylcellulose) (HPC).
Where [4] appears, read: dose: 60.0 mg/kg/injection, schedule: Q01DX005 (ip), vehicle: saline with Tween-80.
The mark [5] stands for this setting: dose: 120.0 mg/kg/injection, schedule: Q01DX005 (ip), vehicle: saline with Tween-80.
Setting [6] is: dose: 240.0 mg/kg/injection, schedule: Q01DX005 (ip), vehicle: saline with Tween-80.
The mark [7] stands for this setting: dose: 20.0 mg/kg/injection, schedule: Q01DX001 (ip), vehicle: Klucel (hydroxypropylcellulose) (HPC).
The mark [8] stands for this setting: dose: 40.0 mg/kg/injection, schedule: Q01DX001 (ip), vehicle: Klucel (hydroxypropylcellulose) (HPC).
[9] abbreviates: dose: 80.0 mg/kg/injection, schedule: Q01DX001 (ip), vehicle: Klucel (hydroxypropylcellulose) (HPC).
The mark [10] stands for this setting: dose: 100.0 mg/kg/injection, schedule: Q01DX001 (ip), vehicle: Klucel (hydroxypropylcellulose) (HPC).
Setting [11] is: dose: 50.0 mg/kg/injection, schedule: Q01DX005 (ip), vehicle: saline with Tween-80.
The mark [12] stands for this setting: dose: 100.0 mg/kg/injection, schedule: Q01DX005 (ip), vehicle: saline with Tween-80.
The mark [13] stands for this setting: dose: 200.0 mg/kg/injection, schedule: Q01DX005 (ip), vehicle: saline with Tween-80.

“And” between values parts separate entries of the source, which are not always exact repeats. Identical values can stand only once. Toxic doses and inconclusive results are not listed. Square brackets hold non-standard residues; d marks the D form. Peptide text beside a SMILES is read from it. * marks the point of attachment. Cbz = O=C(OCc1ccccc1)*; Nva = CCC[CH](N)C(=O)O

With `COc1cc2c(c3c1c(=O)c1cccnc1n3C)C=CC(C)(C)O2`, the T/C is 101 % of control under setting [1], 101 % of control under setting [2] and 91 % of control under setting [3].
For the molecule `O=S(=O)(O)CC[S][Sn]([S]CCS(=O)(=O)O)([c]1ccccc1)[c]1ccccc1` (tested in a mixture with another compound), the T/C reads like this: (dose: 1.87 mg/kg/injection, schedule: Q01DX005 (ip), vehicle: Klucel (hydroxypropylcellulose) (HPC)) 121 % of control; (dose: 3.75 mg/kg/injection, schedule: Q01DX005 (ip), vehicle: Klucel (hydroxypropylcellulose) (HPC)) 152 % of control.
As for `COC(=O)/C=C/c1cccc[n+]1[O-]`, the T/C runs as follows: (dose: 25.0 mg/kg/injection, schedule: Q01DX005 (ip), vehicle: water) 107 % of control; (dose: 50.0 mg/kg/injection, schedule: Q01DX005 (ip), vehicle: water) 107 % of control; (dose: 100.0 mg/kg/injection, schedule: Q01DX005 (ip), vehicle: water) 109 % of control; (dose: 200.0 mg/kg/injection, schedule: Q01DX005 (ip), vehicle: water) 107 % of control.
For the molecule `CCCC(NC(=O)OCc1ccccc1)C(=O)NC(CC(C)C)C(N)=O` (stereo not given) (Cbz-[Nva]-Leu-NH2; configuration not given here), the T/C was 112 % of control under setting [1], 100 % of control under setting [2] and 100 % of control under setting [3].
`CC(C)c1ccc2nc3ccc(C(=O)NCCN(C)C)cn3c(=O)c2c1`: the T/C (dose: 60.0 mg/kg/injection, schedule: Q01DX005 (ip), vehicle: Klucel (hydroxypropylcellulose) (HPC)) was 105 % of control and the T/C (dose: 120.0 mg/kg/injection, schedule: Q01DX005 (ip), vehicle: Klucel (hydroxypropylcellulose) (HPC)) was 101 % of control.
Turning to `O=S1(=O)c2ccccc2N(c2ccccc2)C2=NCCN21`, the T/C is 91 % of control under setting [4], 99 % of control under setting [5] and 97 % of control under setting [6].
As for `CCc1nnc2c(c(=O)n(C)c(=O)n2C)[n+]1[O-]`, the T/C was 106 % of control under setting [7], 106 % of control under setting [8], 112 % of control under setting [9] and 109 % of control under setting [10].
With `CN(C)NC(=O)c1ccc(C(=O)NN(C)C)cc1`, the T/C is, setting by setting: (dose: 50.0 mg/kg/injection, schedule: Q01DX009 (ip), vehicle: Klucel (hydroxypropylcellulose) (HPC)) 108 % of control; (dose: 100.0 mg/kg/injection, schedule: Q01DX009 (ip), vehicle: Klucel (hydroxypropylcellulose) (HPC)) 108 % of control; (dose: 200.0 mg/kg/injection, schedule: Q01DX009 (ip), vehicle: Klucel (hydroxypropylcellulose) (HPC)) 113 % of control.
For `NC(=S)N/N=C\C(CC(O)C(O)CO)=N\NC(N)=S` (stereo not given), the T/C reads like this: under setting [11], 89 % of control; under setting [12], 95 % of control; under setting [13], 98 % of control.
On to `CC(=O)n1c(Cl)c(/C=N/Nc2ccccc2[N+](=O)[O-])c2ccccc21`, for which the T/C (dose: 25.0 mg/kg/injection, schedule: Q01DX001 (ip), vehicle: Klucel (hydroxypropylcellulose) (HPC)) was 91 % of control; the T/C (dose: 50.0 mg/kg/injection, schedule: Q01DX001 (ip), vehicle: Klucel (hydroxypropylcellulose) (HPC)) is 99 % of control; the T/C under setting [10] is 87 % of control and 91 % of control.
Turning to `COc1cccc2c1C(=O)c1c(O)c3c(c(O)c1C2=O)CC(O)(C(C)=O)CC3OC1CC(NC(=O)C(N)CCCCN)C(O)C(C)O1` (stereo not given), the T/C is 101 % of control (dose: 2.5 mg/kg/injection, schedule: Q04DX003 (ip), vehicle: water); 101 % of control and 103 % of control (dose: 5.0 mg/kg/injection, schedule: Q04DX003 (ip), vehicle: water); 95 % of control (dose: 10.0 mg/kg/injection, schedule: Q04DX003 (ip), vehicle: distilled water + Tween-80); 101 % of control and 109 % of control (dose: 10.0 mg/kg/injection, schedule: Q04DX003 (ip), vehicle: water); 96 % of control (dose: 20.0 mg/kg/injection, schedule: Q04DX003 (ip), vehicle: distilled water + Tween-80); 109 % of control and 118 % of control (dose: 20.0 mg/kg/injection, schedule: Q04DX003 (ip), vehicle: water). The T/C was 105 % of control (dose: 40.0 mg/kg/injection, schedule: Q04DX003 (ip), vehicle: distilled water + Tween-80); 106 % of control and 122 % of control (dose: 40.0 mg/kg/injection, schedule: Q04DX003 (ip), vehicle: water); 112 % of control (dose: 80.0 mg/kg/injection, schedule: Q04DX003 (ip), vehicle: distilled water + Tween-80); 118 % of control (dose: 80.0 mg/kg/injection, schedule: Q04DX003 (ip), vehicle: water).
Consider `COc1cccc(-c2ccncc2)c1`, for which the T/C is, setting by setting: under setting [11], 102 % of control; under setting [12], 93 % of control; under setting [13], 93 % of control.
Consider `CSC(=S)N/N=C\C(O)C(O)C(O)C(O)CO` (stereo not given), for which the T/C was 104 % of control (dose: 6.25 mg/kg/injection, schedule: Q04DX003 (ip), vehicle: saline); 109 % of control (dose: 12.5 mg/kg/injection, schedule: Q04DX003 (ip), vehicle: saline); 102 % of control (dose: 25.0 mg/kg/injection, schedule: Q04DX003 (ip), vehicle: saline).
In the case of `CC(CCC(=O)O)(c1ccc(OC(=O)Nc2ccc(Br)cc2)cc1)c1ccc(OC(=O)Nc2ccc(Br)cc2)cc1`, the T/C is 102 % of control under setting [11], 97 % of control under setting [12] and 100 % of control under setting [13].
Consider `COc1ccc2[nH]c(=O)c(C#N)c(C)c2c1`, for which the T/C (dose: 12.5 mg/kg/injection, schedule: Q01DX005 (ip), vehicle: saline with Tween-80) was 95 % of control; the T/C (dose: 25.0 mg/kg/injection, schedule: Q01DX005 (ip), vehicle: saline with Tween-80) was 91 % of control; the T/C under setting [11] is 104 % of control and 91 % of control.
For `COc1cc(C)c(O)c(C/C=C(\C)CC2=C[C@@]3(C)CCC[C@@]3(C)[C@]3(CC(O)C(C)(C)O3)O2)c1` (stereo not given in full), the T/C reads like this: (dose: 20.0 mg/kg/injection, schedule: Q01DX005 (ip), vehicle: saline with Tween-80) 98 % of control; (dose: 40.0 mg/kg/injection, schedule: Q01DX005 (ip), vehicle: saline with Tween-80) 100 % of control; (dose: 80.0 mg/kg/injection, schedule: Q01DX005 (ip), vehicle: saline with Tween-80) 119 % of control.
As to `CN(CCCCn1cnc2ccccc21)N=O`, the T/C is 110 % of control under setting [7], 102 % of control under setting [8] and 110 % of control under setting [9].
With `CSc1nc(N)c(NS(=O)(=O)c2cccc(N)c2)c(=O)[nH]1`, the T/C was 100 % of control under setting [4], 99 % of control under setting [5] and 99 % of control under setting [6].
Regarding `CCc1nc(N)nc(N)c1-c1ccc(N(C)C2CCCCC2)c([N+](=O)[O-])c1`, the T/C by setting is: under setting [4], 105 % of control and 106 % of control; under setting [5], 115 % of control; under setting [6], 103 % of control; (dose: 480.0 mg/kg/injection, schedule: Q01DX005 (ip), vehicle: saline with Tween-80) 168 % of control.
